Results published in patent publication US20250387481A1, “PRE-TREATED T CELLS FOR USE AS A MEDICAMENT” (STICHTING HET NEDERLANDS KANKER INSTITUUT-ANTONI VAN …, priority 2022, published 2025).

Tests used:
[1] = tested on: mouse T cells isolated from the spleen; assay: T cell immunofluorescence staining of tubulin and F-actin; assay type: cell-based; details: 10 nmol/L, 72 h
Protocol: Mouse T cells isolated from the spleen and treated with a vehicle control or with docetaxel (10 nmol/L for 72 h) were seeded on glass coverslips pre-coated with poly-D-lysine (Thermo Fisher Cat. No. A3890401) and with αCD3 (eBioscience, Cat. No. 56-0033-80) for 15 min. Next, for immunofluorescence staining of tubulin, cells were extracted for 1 min with pre-warmed (37° C.) extraction buffer composed of MRB80 (80 mmol/L K-PIPES pH 6.8, 4 mmol/L MgCl2, 1 mmol/L EGTA) supplemented with 0.35% Triton X-100 and 0.2% glutaraldehyde, followed by fixation using pre-warmed (37° C.) 4% paraformaldehyde (PFA) in PBS for 10 min. Cells were washed with PBS and permeabilized with 0.2% Triton X-100 in PBS for 5 min. […]
For fluorescence intensity quantifications, samples were imaged on a spinning disk confocal setup consisting of an inverted research microscope Nikon Eclipse Ti-E (Nikon) equipped with the perfect focus system (Nikon), Plan Apo VC 100×N.A. 1.40 oil objective (Nikon), spinning disk Yokogawa CSU-X1-A1 with 405-491-561-642 quad-band mirror (Yokogawa). […]
All images were processed using ImageJ. For quantification of fluorescence intensity, sum projections were made for each z-stack using ImageJ. Next, the raw integrated density of a square box around individual cells of interest per image, as well as an empty region in the field of view, were calculated using ImageJ. […]

[2] = tested on: Jurkat T cells; assay: MTT assessment of Jurkat T cell survival; assay type: cell-based, human; details: 5 nmol/L, 72 h
Protocol: Preparation of Jurkat T cells: Jurkat T cells were cultured in Roswell Park Memorial Institute (RPMI) 1640 Medium (Thermo Fisher Scientific, Cat. No. 21875034) containing FBS (10%, Thermo Fisher Scientific, Cat. No. A4766801), Penicillin/streptomycin (10,000 U/ml; Thermo Fisher Scientific, Cat. No. 15140-122), and Ultraglutamine (2 mmol/L, Lonza, Cat. No. BE17-605E/U1). Jurkat T cells were kept in 20% O2, 5% CO2 and at 37 degrees Celsius. Jurkat T cells were treated for 72 h with PBS or with docetaxel (docetaxel 5 nmol/L). Subsequently, Jurkat T cells were collected and washed 3 times in PBS to remove residual chemotherapy.
About 100,000 T cells were seeded per well in a 96-well plate and treated with
increasing doses of docetaxel, paclitaxel, or carboplatin for 72 h. Next, T cells were incubated with Thiazolyl Blue Tetrazolium Bromide (0.5 mg/ml, Sigma Aldrich, Cat. No. 298-93-1) for 3 hr in the dark at 37 degrees Celsius. Subsequently, T cells were incubated for 16 h in the dark in a lysis buffer (40% dimerhylofrmamide, 0.55 mol/L sodium dodecyl sulfate, 2% acetic acid, 8.4 mmol/L HCl in MilliQ water). Plates were read with a 565 nm wavelength.

For CC(=O)O[C@@]12CO[C@@H]1C[C@H](O)[C@@]1(C)C(=O)[C@H](O)C3=C(C)[C@@H](OC(=O)[C@H](O)[C@@H](NC(=O)OC(C)(C)C)c4ccccc4)C[C@@](O)([C@@H](OC(=O)c4ccccc4)[C@H]21)C3(C)C [docetaxel], the microtubule density [1] was “increased microtubule density” and the “Jurkat T cells survival (MTT)” value [2] was “did not significantly reduce Jurkat T cells survival”.
